{"source": "patent US11078170B2", "about": "(Assembly Biosciences, Inc., priority 2017, dated 2021)", "data": [{"system": "HBV viral production from HepAD38 cells", "test": "Activity of test compounds on viral production from HepAD38 cells (viral load by qPCR of HBV core sequence in supernatant)", "format": "cell-based", "conditions": "Hepatitis B virus, 120 h, 5 days incubation, HBV DNA in supernatant by qPCR, top concentration 10 μM, read-out: Viral Load EC50 Activity range", "method": "Assay Measuring Activity of Test Compounds on Viral Production from HepAD38 Cells\nHepAD38 cells grown in a T-150 flask (Corning, cat #: 430825) with Growth Medium (DMEM/F12 (1:1) (Hyclone, cat #: SH30023.02), 1×Pen/Strep (Invitrogen, cat #: 15140-122), 10% FBS (Tissue Culture Biologics, cat #: 101), 250 μg/mL G418 (Alfa Aesar, cat #: J62671), 1 μg/mL Tetracycline (Teknova, cat #: T3320)) were detached with 0.25% trypsin-EDTA (Invitrogen, cat #: 25200-056). Tetracycline-free treatment medium (15 mL DMEM/F12 (1:1) 1× Pen/step, with 2% FBS, Tet-system approved (Clontech, cat #: 631106) were then added to mix, transferred into a 50 ml conical tube (Falcon, cat #: 21008-918) and spun at 1300 rpm for 5 min. Pelleted cells were then re-suspended/washed with 50 mL of 1×DPBS (Invitrogen, cat #: 14190-136) 2 times and 50 mL treatment medium twice. HepAD38 cells were then re-suspended with 10 mL of treatment medium, syringed and counted. Wells of 96-well clear bottom TC plate (Corning, cat #: 3904) were seeded at 50,000 cells/well in 180 μL of treatment medium, and 20 μL of either 10% DMSO (Sigma, cat #: D4540) as controls or a 10× solution of test compounds in 10% DMSO in treatment media was added for a final compound concentration starting at 10 μM, and plates were incubated in 5% CO2 incubator at 37° C. for 5 days.\nSubsequently viral load production was assayed by quantitative PCR (qPCR) of the HBV core sequence. PCR reaction mixture containing forward primers HBV-f 5′-CTGTGCCTTGGGTGGCTTT-3′, which is SEQ ID NO 1, (IDT DNA), Reverse primers HBV-r 5′-[…]-3′, which is SEQ ID NO 2 (IDT DNA), Fluorescent TaqMan™ Probes HBV-probe 5′-FAM/AGCTCCAAA/ZEN/[…]/3IABkFQ-3′ (IDT DNA), which is SEQ ID NO 3, 10 μL/well of PerfeCTa® qPCR ToughMix® (Quanta Biosciences, Cat #: 95114-05K), and 6 µL/well of DEPC water (Alfa Aesar, cat #: J62087) was prepared. Four μL of supernatant was added to 16 μL of the reaction mixture in a qPCR plate (Applied Biosytems, Cat #: 4309849), sealed with a film (Applied Biosystems, Cat #: 4311971), centrifuged for a few seconds, and subsequently run on an Applied Biosystems VIIA7. The PCR mixture was incubated at 45° C. for 5 min, then 95° C. for 10 min, followed by 40 cycles of 10 seconds at 95° C. and 20 seconds at 60° C. Viral load was quantified against known HBV DNA standards by using ViiA™ 7 Software. Viral load in the supernatant from wells with treated cells were compared against viral load in supernatant from DMSO control wells (≥3 per plate). Cell viability assay was performed with CellTiter-Glo Luminescent Cell Viability Assay (Promega, cat #: G7573) with modification. Mixed appropriate amount of CellTiter-Glo (CTG) 1×DPBS in a 1:1 ratio, added 100 uL of the mixture to each well followed completely removal of all supernatant in each well without touching cell surface. Incubated the plate at room temperature for 10 min on an orbital shaker, and then read the plate with a plate reader (TECAN M1000 or Envision). EC50 or CC50 values were calculated through curve-fitting of the four-parameter nonlinear-logistic-regression model (GraphPad Prism or Dotmatics). CC50 values were all >10 μM.", "units": {"EC50": "nM"}, "values": [{"smiles": "COCCN1[C@@H](C(=O)Nc2ccc(F)c(Cl)c2)C[C@@H](c2cccs2)NS1(=O)=O", "note": "[HBV-CSU-025-ISO-I, Cis-N-(3-chloro-4-fluorophenyl)-2-(2-methoxyethyl)-5-(thiophen-2-yl)-1,2,6-thiadiazinane-3-carboxamide 1,1-dioxide]", "EC50": "> 5000"}, {"smiles": "C[C@H]1C[C@@H](C(=O)Nc2ccc(F)c(Cl)c2)N(C)S(=O)(=O)N1", "note": "[HBV-CSU-050-ISO-I, Cis-N-(3-chloro-4-fluorophenyl)-2,5-dimethyl-1,2,6-thiadiazinane-3-carboxamide 1,1-dioxide]", "EC50": "1000 to 5000"}, {"smiles": "Cc1c(-c2csc([C@@H]3C[C@H](C(=O)Nc4ccc(F)c(Cl)c4)N(C)S(=O)(=O)N3)c2)cnn1C", "note": "(relative stereo) [HBV-CSU-315-ISO-II, Cis-N-(3-chloro-4-fluorophenyl)-5-(4-(1,5-dimethyl-1H-pyrazol-4-yl)thiophen-2-yl)-2-methyl-1,2,6-thiadiazinane-3-carboxamide 1,1-dioxide]", "EC50": "< 1000"}, {"smiles": "CN1[C@@H](C(=O)Nc2ccc(F)c(Cl)c2)C[C@@H](c2ccc(-c3cccs3)s2)NS1(=O)=O", "note": "[HBV-CSU-162-ISO-II, Cis-N-5-([2,2′-bithiophen]-5-yl)-N-(3-chloro-4-fluorophenyl)-2-methyl-1,2,6-thiadiazinane-3-carboxamide 1,1-dioxide]", "EC50": "1000 to 5000"}, {"smiles": "CN1[C@H](C(=O)Nc2ccc(F)c(Cl)c2)C[C@H](c2cnc(-c3ccccc3)s2)NS1(=O)=O", "note": "[HBV-CSU-235-ISO-I, N-(3-Chloro-4-fluorophenyl)-2-methyl-5-(2-phenylthiazol-5-yl)-1,2,6-thiadiazinane-3-carboxamide 1,1-dioxide]", "EC50": "< 1000"}, {"smiles": "CN1C(C(=O)Nc2ccc(F)c(Cl)c2)CC(c2ccc(-c3cccs3)s2)NS1(=O)=O", "note": "(stereo not drawn) [HBV-CSU-162, Cis-N-5-([2,2′-bithiophen]-5-yl)-N-(3-chloro-4-fluorophenyl)-2-methyl-1,2,6-thiadiazinane-3-carboxamide 1,1-dioxide]", "EC50": "< 1000"}, {"smiles": "CN1C(C(=O)Nc2ccc(F)c(Cl)c2)CC(c2ccc3ncsc3c2)NS1(=O)=O", "note": "(stereo not drawn) [HBV-CSU-273, Cis-5-(benzo[d]thiazol-6-yl)-N-(3-chloro-4-fluorophenyl)-2-methyl-1,2,6-thiadiazinane-3-carboxamide 1,1-dioxide]", "EC50": "< 1000"}, {"smiles": "CN1[C@@H](C(=O)Nc2ccc(F)c(Cl)c2)C[C@@H](c2ncc(Br)s2)NS1(=O)=O", "note": "[HBV-CSU-122-ISO-II, Cis-5-(5-bromothiazol-2-yl)-N-(3-chloro-4-fluorophenyl)-2-methyl-1,2,6-thiadiazinane-3-carboxamide 1,1-dioxide]", "EC50": "1000 to 5000"}, {"smiles": "O=C(Nc1ccc(F)c(Cl)c1)C1CC(c2nccs2)NS(=O)(=O)N1CCOC(F)(F)F", "note": "(racemic) [HBV-CSU-072, Cis-N-(3-Chloro-4-fluorophenyl)-5-(thiazol-2-yl)-2-(2-(trifluoromethoxy)ethyl)-1,2,6-thiadiazinane-3-carboxamide 1,1-dioxide]", "EC50": "< 1000"}, {"smiles": "CN1C(C(=O)Nc2ccc(F)c(Cl)c2)CC(c2ccc(OC(F)F)cc2)NS1(=O)=O", "note": "(racemic) [HBV-CSU-263, Cis-N-(3-Chloro-4-fluorophenyl)-5-(4-(difluoromethoxy)phenyl)-2-methyl-1,2,6-thiadiazinane-3-carboxamide 1,1-dioxide]", "EC50": "< 1000"}, {"smiles": "CN1[C@H](C(=O)Nc2ccc(F)c(Cl)c2)C[C@H](c2cc(-c3ccccc3)cs2)NS1(=O)=O", "note": "[HBV-CSU-148-ISO-I, Cis-N-(3-chloro-4-fluorophenyl)-2-methyl-5-(4-phenylthiophen-2-yl)-1,2,6-thiadiazinane-3-carboxamide 1,1-dioxide]", "EC50": "< 1000"}, {"smiles": "CN1C(C(=O)Nc2ccc(F)c(Cl)c2)CC(C2CCCC2)NS1(=O)=O", "note": "(racemic) [HBV-CSU-222, Cis-N-(3-chloro-4-fluorophenyl)-5-cyclopentyl-2-methyl-1,2,6-thiadiazinane-3-carboxamide 1,1-dioxide]", "EC50": "< 1000"}, {"smiles": "CN1[C@@H](C(=O)Nc2ccc(F)c(Cl)c2)C[C@@H](c2ncc(-c3ccccc3)s2)NS1(=O)=O", "EC50": "1000 to 5000"}, {"smiles": "CN1C(C(=O)Nc2ccc(F)c(Cl)c2)CC(c2nccs2)NS1(=O)=O", "note": "(racemic) [HBV-CSU-027, Cis-N-(3-chloro-4-fluorophenyl)-2-methyl-5-(thiazol-2-yl)-1,2,6-thiadiazinane-3-carboxamide 1,1-dioxide]", "EC50": "< 1000"}, {"smiles": "Cc1ccc([C@H]2C[C@@H](C(=O)Nc3ccc(F)c(Cl)c3)N(C)S(=O)(=O)N2)s1", "note": "[HBV-CSU-115-ISO-I, Cis-N-(3-chloro-4-fluorophenyl)-2-methyl-5-(5-methylthiophen-2-yl)-1,2,6-thiadiazinane-3-carboxamide 1,1-dioxide]", "EC50": "< 1000"}, {"smiles": "CN1[C@H](C(=O)Nc2ccc(F)c(Cl)c2)C[C@H](c2cc(-c3ccnn3C)cs2)NS1(=O)=O", "note": "(relative stereo) [HBV-CSU-289-ISO-I, Cis-N-(3-chloro-4-fluorophenyl)-2-methyl-5-(4-(1-methyl-1H-pyrazol-5-yl)thiophen-2-yl)-1,2,6-thiadiazinane-3-carboxamide 1,1-dioxide]", "EC50": "< 1000"}, {"smiles": "Cc1ccc(C2CC(C(=O)Nc3ccc(F)c(Cl)c3)N(C)S(=O)(=O)N2)s1", "note": "(racemic) [HBV-CSU-115, Cis-N-(3-chloro-4-fluorophenyl)-2-methyl-5-(5-methylthiophen-2-yl)-1,2,6-thiadiazinane-3-carboxamide 1,1-dioxide]", "EC50": "< 1000"}, {"smiles": "CN1C(C(=O)Nc2ccc(F)c(Cl)c2)CC(c2ccc(-c3cn(C)cn3)s2)NS1(=O)=O", "note": "(racemic) [HBV-CSU-266, Cis-N-(3-Chloro-4-fluorophenyl)-2-methyl-5-(5-(1-methyl-1H-imidazol-4-yl)thiophen-2-yl)-1,2,6-thiadiazinane-3-carboxamide 1,1-dioxide]", "EC50": "< 1000"}, {"smiles": "COc1ccccc1C1CC(C(=O)Nc2ccc(F)c(Cl)c2)N(C)S(=O)(=O)N1", "note": "(stereo not drawn) [HBV-CSU-215]", "EC50": "1000 to 5000"}, {"smiles": "CN1C(C(=O)Nc2ccc(F)c(Cl)c2)CC(c2ncc(-c3cn(C)cn3)s2)NS1(=O)=O", "note": "(racemic) [HBV-CSU-276, Cis-N-(3-Chloro-4-fluorophenyl)-2-methyl-5-(5-(1-methyl-1H-imidazol-4-yl)thiazol-2-yl)-1,2,6-thiadiazinane-3-carboxamide 1,1-dioxide]", "EC50": "< 1000"}, {"smiles": "[2H]C([2H])([2H])N1C(C(=O)Nc2ccc(F)c(Cl)c2)CC(c2ncc(Br)s2)NS1(=O)=O", "note": "(stereo not drawn) [HBV-CSU-336, 5-(5-Bromothiazol-2-yl)-N-(3-chloro-4-fluorophenyl)-2-(methyl-d3)-1,2,6-thiadiazinane-3-carboxamide 1,1-dioxide]", "EC50": "< 1000"}, {"smiles": "CCOCCN1C(C(=O)Nc2ccc(F)c(Cl)c2)CC(c2nccs2)NS1(=O)=O", "note": "(racemic) [HBV-CSU-142, Cis-N-(3-Chloro-4-fluorophenyl)-2-(2-ethoxyethyl)-5-(thiazol-2-yl)-1,2,6-thiadiazinane-3-carboxamide 1,1-dioxide]", "EC50": "< 1000"}, {"smiles": "CN1[C@@H](C(=O)Nc2ccc(F)c(Cl)c2)C[C@@H](c2ccc(-c3ccc(NS(C)(=O)=O)cc3)s2)NS1(=O)=O", "note": "(relative stereo) [HBV-CSU-163-ISO-II, Cis-N-(3-chloro-4-fluorophenyl)-2-methyl-5-(5-(4-(methylsulfonamido)phenyl)thiophen-2-yl)-1,2,6-thiadiazinane-3-carboxamide 1,1-dioxide]", "EC50": "< 1000"}, {"smiles": "O=C(Nc1ccc(F)c(Cl)c1)[C@H]1C[C@@H](c2nccs2)NS(=O)(=O)N1CCOCc1ccccc1", "note": "(relative stereo) [HBV-CSU-095-ISO-I, Cis-2-(2-(benzyloxy)ethyl)-N-(3-chloro-4-fluorophenyl)-5-(thiazol-2-yl)-1,2,6-thiadiazinane-3-carboxamide 1,1-dioxide]", "EC50": "1000 to 5000"}]}]}
